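Five concentrations, 48 hours, 96-well plates. GI50 marks 50% less growth. Definition used: TGI = concentration required for complete inhibition of growth.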
Key:
Assay in all cases: inhibition of tumour cell growth, NCI panel, 48 h
SF-295 CNS = test system: SF-295 CNS
LOX IMVI melanoma = test system: LOX IMVI melanoma
COLO 205 colon = test system: COLO 205 colon
IGROV1 ovarian = test system: IGROV1 ovarian
NCI-H522 lung = test system: NCI-H522 lung
SW-620 colon = test system: SW-620 colon
NCI-H460 lung = test system: NCI-H460 lung
RPMI-8226 leukemia = test system: RPMI-8226 leukemia
UACC-62 melanoma = test system: UACC-62 melanoma
TK-10 renal = test system: TK-10 renal
RXF 393 renal = test system: RXF 393 renal
SNB-19 CNS = test system: SNB-19 CNS
HT29 colon = test system: HT29 colon
NCI-H226 lung = test system: NCI-H226 lung
HCT-15 colon = test system: HCT-15 colon
DU-145 prostate = test system: DU-145 prostate
SF-539 CNS = test system: SF-539 CNS
ACHN renal = test system: ACHN renal
OVCAR-5 ovarian = test system: OVCAR-5 ovarian
HS 578T breast = test system: HS 578T breast
A549 NSCLC = test system: A549 NSCLC
KM12 colon = test system: KM12 colon
BT-549 breast = test system: BT-549 breast
HOP-62 NSCLC = test system: HOP-62 NSCLC
HCC-2998 colon = test system: HCC-2998 colon
786-0 renal = test system: 786-0 renal
UACC-257 melanoma = test system: UACC-257 melanoma
K-562 leukemia = test system: K-562 leukemia
MDA-MB-435 = test system: MDA-MB-435
SF-268 CNS = test system: SF-268 CNS
A498 renal = test system: A498 renal
CAKI-1 renal = test system: CAKI-1 renal
HL-60(TB) leukemia = test system: HL-60(TB) leukemia
T-47D breast = test system: T-47D breast
HOP-92 NSCLC = test system: HOP-92 NSCLC
EKVX NSCLC = test system: EKVX NSCLC
SK-OV-3 ovarian = test system: SK-OV-3 ovarian
MOLT-4 leukemia = test system: MOLT-4 leukemia
SK-MEL-28 melanoma = test system: SK-MEL-28 melanoma
CCRF-CEM leukemia = test system: CCRF-CEM leukemia
M14 melanoma = test system: M14 melanoma
OVCAR-4 ovarian = test system: OVCAR-4 ovarian
SR leukemia = test system: SR leukemia
NCI-H23 lung = test system: NCI-H23 lung
SN12C renal = test system: SN12C renal
PC-3 prostate = test system: PC-3 prostate
SNB-75 CNS = test system: SNB-75 CNS
NCI/ADR-RES ovarian = test system: NCI/ADR-RES ovarian
SK-MEL-2 melanoma = test system: SK-MEL-2 melanoma
SK-MEL-5 melanoma = test system: SK-MEL-5 melanoma
U251 CNS = test system: U251 CNS
OVCAR-3 ovarian = test system: OVCAR-3 ovarian
MCF7 breast = test system: MCF7 breast
MALME-3M melanoma = test system: MALME-3M melanoma
UO-31 renal = test system: UO-31 renal
HCT-116 colon = test system: HCT-116 colon
MDA-MB-231 breast = test system: MDA-MB-231 breast
OVCAR-8 ovarian = test system: OVCAR-8 ovarian

## Nc1cc2ccccc2c(O)c1O
SF-295 CNS
  GI50: 15.7 µM
  TGI: 29.8 µM
LOX IMVI melanoma
  GI50: 1.59 µM
  TGI: 2.94 µM
COLO 205 colon
  GI50: 15 µM
  TGI: 31.5 µM
IGROV1 ovarian
  GI50: 3.98 µM
  TGI: 16.3 µM
NCI-H522 lung
  GI50: 1.97 µM
  TGI: 3.94 µM
SW-620 colon
  GI50: 2.08 µM
  TGI: 4.33 µM
NCI-H460 lung
  GI50: 13 µM
  TGI: 32.1 µM
RPMI-8226 leukemia
  GI50: 2.72 µM
  TGI: 7.13 µM
UACC-62 melanoma
  GI50: 5.65 µM
  TGI: 18.7 µM
TK-10 renal
  GI50: 17.9 µM
  TGI: 32.2 µM
RXF 393 renal
  GI50: 1.83 µM
  TGI: 3.25 µM
SNB-19 CNS
  GI50: 15.6 µM
  TGI: 31.9 µM
HT29 colon
  GI50: 19.6 µM
  TGI: 41.8 µM
NCI-H226 lung
  GI50: 2.36 µM
  TGI: 5.84 µM
HCT-15 colon
  GI50: 1.9 µM
  TGI: 4.08 µM
DU-145 prostate
  GI50: 13.4 µM
  TGI: 27.4 µM
SF-539 CNS
  GI50: 1.79 µM
  TGI: 3.32 µM
ACHN renal
  GI50: 1.69 µM
  TGI: 3.54 µM
OVCAR-5 ovarian
  GI50: 3.13 µM
  TGI: 13.5 µM
HS 578T breast
  GI50: 5.7 µM
  TGI: 96.2 µM
A549 NSCLC
  GI50: 20.5 µM
  TGI: 41.4 µM
KM12 colon
  GI50: 5.24 µM
  TGI: 18.9 µM
BT-549 breast
  GI50: 13.3 µM
  TGI: 26.1 µM
HOP-62 NSCLC
  GI50: 15.7 µM
  TGI: 30.1 µM
HCC-2998 colon
  GI50: 12.8 µM
  TGI: 27.1 µM
786-0 renal
  GI50: 1.85 µM
  TGI: 3.28 µM
UACC-257 melanoma
  GI50: 5.31 µM
  TGI: 18.1 µM
K-562 leukemia
  GI50: 2.59 µM
  TGI: 8.11 µM
MDA-MB-435
  GI50: 1.83 µM
  TGI: 3.38 µM
SF-268 CNS
  GI50: 1.78 µM
  TGI: 3.59 µM
A498 renal
  GI50: 16.1 µM
  TGI: 30.5 µM
CAKI-1 renal
  GI50: 1.67 µM
  TGI: 3.1 µM
HL-60(TB) leukemia
  GI50: 2.08 µM
  TGI: 5.77 µM
T-47D breast
  GI50: 2.71 µM
  TGI: 7.69 µM
HOP-92 NSCLC
  GI50: 1.96 µM
  TGI: 5.75 µM
EKVX NSCLC
  GI50: 10.7 µM
  TGI: 22.7 µM
SK-OV-3 ovarian
  GI50: 15.4 µM
  TGI: 29 µM
MOLT-4 leukemia
  GI50: 2.49 µM
  TGI: 6.27 µM
SK-MEL-28 melanoma
  GI50: 12.8 µM
  TGI: 27.4 µM
CCRF-CEM leukemia
  GI50: 3 µM
  TGI: 7.85 µM
M14 melanoma
  GI50: 3.35 µM
  TGI: 12.3 µM
OVCAR-4 ovarian
  GI50: 1.53 µM
  TGI: 2.88 µM
SR leukemia
  GI50: 3.16 µM
  TGI: 13.2 µM
NCI-H23 lung
  GI50: 3.5 µM
  TGI: 17.9 µM
SN12C renal
  GI50: 2.13 µM
  TGI: 4.78 µM
PC-3 prostate
  GI50: 1.73 µM
  TGI: 3.91 µM
SNB-75 CNS
  GI50: 1.94 µM
  TGI: 18.4 µM
NCI/ADR-RES ovarian
  GI50: 2.37 µM
  TGI: 6.21 µM
SK-MEL-2 melanoma
  GI50: 14.4 µM
  TGI: 33.1 µM
SK-MEL-5 melanoma
  GI50: 15.1 µM
  TGI: 29.3 µM
U251 CNS
  GI50: 1.91 µM
  TGI: 3.48 µM
OVCAR-3 ovarian
  GI50: 1.74 µM
  TGI: 3.52 µM
MCF7 breast
  GI50: 1.88 µM
  TGI: 4.32 µM
MALME-3M melanoma
  GI50: 1.87 µM
  TGI: 3.83 µM
UO-31 renal
  GI50: 2.53 µM
  TGI: 10.3 µM
HCT-116 colon
  GI50: 2.07 µM
  TGI: 4.5 µM
MDA-MB-231 breast
  GI50: 1.96 µM
  TGI: 5.22 µM

## COc1ccc(-c2cn(-c3cccc(C(=O)/C=C/c4cc(OC)c(OC)c(OC)c4)c3)c(=O)[nH]2)cc1
SF-295 CNS
  GI50: 4.95 µM
  TGI: 22 µM
LOX IMVI melanoma
  GI50: 0.725 µM
  TGI: 2.3 µM
COLO 205 colon
  GI50: 1.84 µM
  TGI: 3.89 µM
IGROV1 ovarian
  GI50: 2.58 µM
  TGI: 7.42 µM
NCI-H522 lung
  GI50: 1.85 µM
  TGI: 4.39 µM
SW-620 colon
  GI50: 0.452 µM
  TGI: 1.61 µM
NCI-H460 lung
  GI50: 1.56 µM
  TGI: 3.14 µM
RPMI-8226 leukemia
  GI50: 0.924 µM
  TGI: > 100 µM
UACC-62 melanoma
  GI50: 2.06 µM
  TGI: 4.85 µM
TK-10 renal
  GI50: 3.04 µM
  TGI: 9.97 µM
RXF 393 renal
  GI50: 1.92 µM
  TGI: 3.75 µM
SNB-19 CNS
  GI50: 4.38 µM
  TGI: 15.8 µM
HT29 colon
  GI50: 1.28 µM
  TGI: 2.58 µM
NCI-H226 lung
  GI50: 35.2 µM
  TGI: > 100 µM
HCT-15 colon
  GI50: 1.38 µM
  TGI: 4.7 µM
DU-145 prostate
  GI50: 2.61 µM
  TGI: 8.76 µM
OVCAR-8 ovarian
  GI50: 2.53 µM
  TGI: 15.3 µM
SF-539 CNS
  GI50: 2 µM
  TGI: 4.09 µM
OVCAR-5 ovarian
  GI50: 2.64 µM
  TGI: 5.51 µM
HS 578T breast
  GI50: 3.39 µM
  TGI: 25.6 µM
A549 NSCLC
  GI50: 11.8 µM
  TGI: > 100 µM
KM12 colon
  GI50: 1.42 µM
  TGI: 2.75 µM
BT-549 breast
  GI50: 2.59 µM
  TGI: 8.92 µM
HOP-62 NSCLC
  GI50: 5.91 µM
  TGI: 18.1 µM
HCC-2998 colon
  GI50: 1.64 µM
  TGI: 3 µM
786-0 renal
  GI50: 1.61 µM
  TGI: 3.25 µM
UACC-257 melanoma
  GI50: 3.04 µM
  TGI: 12.1 µM
K-562 leukemia
  GI50: 1.27 µM
  TGI: > 100 µM
MDA-MB-435
  GI50: 1.86 µM
  TGI: 7.49 µM
SF-268 CNS
  GI50: 3.21 µM
  TGI: 10.6 µM
A498 renal
  GI50: 4.21 µM
  TGI: 14.5 µM
CAKI-1 renal
  GI50: 3.05 µM
  TGI: 13.2 µM
HL-60(TB) leukemia
  GI50: 4.28 µM
  TGI: > 100 µM
T-47D breast
  GI50: 3.84 µM
  TGI: 22.4 µM
HOP-92 NSCLC
  GI50: 14.9 µM
  TGI: 67.2 µM
EKVX NSCLC
  GI50: 4.2 µM
  TGI: > 100 µM
SK-OV-3 ovarian
  GI50: 4.6 µM
  TGI: 61.2 µM
MOLT-4 leukemia
  GI50: 3.48 µM
  TGI: > 100 µM
SK-MEL-28 melanoma
  GI50: 2.03 µM
  TGI: 4.04 µM
CCRF-CEM leukemia
  GI50: 1.74 µM
  TGI: > 100 µM
M14 melanoma
  GI50: 1.85 µM
  TGI: 5.21 µM
OVCAR-4 ovarian
  GI50: 3.57 µM
  TGI: > 100 µM
SR leukemia
  GI50: 0.85 µM
  TGI: > 100 µM
NCI-H23 lung
  GI50: 1.63 µM
  TGI: 4.35 µM
SN12C renal
  GI50: 3.5 µM
  TGI: 18.5 µM
PC-3 prostate
  GI50: 6.22 µM
  TGI: 39 µM
SNB-75 CNS
  GI50: 4.59 µM
  TGI: 17 µM
NCI/ADR-RES ovarian
  GI50: 1.7 µM
  TGI: 4.67 µM
SK-MEL-2 melanoma
  GI50: 2.63 µM
  TGI: 7.41 µM
SK-MEL-5 melanoma
  GI50: 2.03 µM
  TGI: 5.25 µM
U251 CNS
  GI50: 0.888 µM
  TGI: 3.25 µM
OVCAR-3 ovarian
  GI50: 1.78 µM
  TGI: 4.23 µM
MCF7 breast
  GI50: 0.444 µM
  TGI: 3.45 µM
MALME-3M melanoma
  GI50: 1.79 µM
  TGI: 6.24 µM
UO-31 renal
  GI50: 1.91 µM
  TGI: 6.73 µM
HCT-116 colon
  GI50: 0.371 µM
  TGI: 1.38 µM
MDA-MB-231 breast
  GI50: 5.48 µM
  TGI: 25.4 µM
